Results reported in patent US20050171151A1, “Methods of treating hyperlipidemia” (Allergan, Inc., priority 2001, published 2005).
“And” between values parts separate entries of the source, which are not always exact repeats. Equal values may be shown once. “Also recorded” adds a separate entry of the source. Read-outs that look alike come from different tables or passages of the source.

Key:
serum triglycerides [1] = assay: Serum triglycerides (STG) in male SJL mice; type: in vivo; conditions: for Serum triglycerides, Day 4 0 hr (2 pm), group mean / Serum triglycerides, Day 3 8 a.m., group mean / Serum triglycerides, Day 4 0 hr (2 pm): 20 mg/kg oral gavage daily; for Serum triglycerides, Day 3 8 a.m., group mean / Serum triglycerides, Day 3 8 a.m.: non-fasting; for Serum triglycerides, Day 3 8 a.m. / Serum triglycerides, Day 4 0 hr (2 pm): individual male SJL mice, 20 mg/kg; for Serum triglycerides, Day 3 8 a.m.: 20 mg/kg oral gavage daily in corn oil; for Effect on non-fasting STG: Day 3, 8 a.m.
Protocol: Male SJL mice were dosed orally with vehicle, AGN 197116 (RARα antagonist) or AGN 194310 (RAR pan-antagonist) for 4 consecutive days. The structure of AGN 194310 is described herein below. The structure of AGN 197116 is: [drawing 16]
The test compounds were dissolved in corn oil and given at a dosage/volume of 20 mg/5 ml/kg. […]
(§1) On day 4, animals were fasted after dosing, starting at 8 a.m. Following 6 hours of fasting, blood samples were collected prior to intravenous injection of WR-1339 at 100 mg/5 ml/kg. Additional serum samples were collected at 1 and 2 hours after WR-1339 injection. WR-1339 is a detergent which inactivates lipoprotein lipase and thus prevents the removal of triglycerides from circulation. By measuring the increase of STG after WR-1339 administration in fasted animals, one can estimate the hepatic triglyceride (HTG) output during fasting.
(§2) Due to the lack of effect of AGN 197116 at 20 mg/kg, the dose was increased to 100 mg/kg in the same set of mice. STG was determined on day 3 prior to dosing (Day 3, 8 a.m.). […] To ensure that AGN 197116 would be bioavailable, AGN 197116 was dissolved in DMSO and given by intraperitoneal injections, once at 4 p.m. on day 3 and once at 8 a.m. on day 4, at a dosage of 100 mg/kg/injection. Administration of WR-1339 and blood collections on day 4 were similarly conducted as described above.

[2] = system: hepatic triglyceride output; assay: Hepatic triglyceride (HTG) output: increase of STG after WR-1339 in fasted male SJL mice; type: in vivo; conditions: for Serum triglycerides, Day 4 post-WR-1339 1 hr (3 p.m.), group mean / Serum triglycerides, Day 4 post-WR-1339 2 hr (4 p.m.), group mean / Serum triglycerides, Day 4 post-WR-1339 1 hr (3 p.m.) / Serum triglycerides, Day 4 post-WR-1339 2 hr (4 p.m.): fasted; for Effect on HTG output after WR-1339 injection: 20 mg/kg orally for 4 days
Protocol: as §1, §2

[3] = system: serum lipids (triglyceride, cholesterol, LDL, HDL); conditions: for Triglyceride level after treatment: with diet and exercise
Stability to light = type: physicochemical
[4] = Clinical observation, body weight and food consumption of treated monkeys; type: in vivo, cynomolgus monkeys
Excerpt: AGN 194310 is an RAR antagonist or inverse agonist. Its structure is described herein below.

[5] = cynomolgus monkey, in vivo
Protocol: (§3) Five male cynomologus monkeys were employed in Study PT-99-10. Three of the five monkeys were treated with AGN 194310 at a daily dosage of 1.25 mg/kg (orally) for a period of 25 days. […] Its structure is described herein below. The remaining two were similarly treated with a vehicle to serve as control. Serum samples were collected on days 1, 8, 15, 22 and 25 for triglyceride determination. Serum samples from days 8, 15, 22 and 25 were also assayed for the concentration of AGN 194310.

serum triglycerides [6] = assay: Serum triglycerides in cynomolgus monkeys treated orally (Study PT-99-10); type: in vivo
Protocol: as §3, with “PT-99-10.” for “PT-99-10. Three of the five monkeys were treated with AGN 194310 at a daily dosage of 1.25 mg/kg (orally) for a period of 25 days.”

[7] = group mean, male SJL mice, after 6 hours fasting, before WR-1339
[8] = after 6 hours fasting, before WR-1339
[9] = male SJL mice, 20 mg/kg oral gavage daily, 1 hr after 100 mg/kg tyloxapol IV
[10] = male SJL mice, 20 mg/kg oral gavage daily, 2 hr after 100 mg/kg tyloxapol IV
[11] = individual male SJL mice, 20 mg/kg oral gavage daily, 1 hr after 100 mg/kg tyloxapol IV
[12] = individual male SJL mice, 20 mg/kg oral gavage daily, 2 hr after 100 mg/kg tyloxapol IV

SMILES: Cc1ccc(C2=CCC(C)(C)c3cc(O)c(C(=O)Nc4ccc(C(=O)O)c(F)c4)cc32)cc1 [AGN 197116]
- Effect on STG (serum triglycerides [1]; SJL mice, 100 mg/kg orally, Day 3, 8 a.m. prior to dosing): no lowering of STG was observed
- Effect on STG (serum triglycerides [1]; SJL mice, 16 hours after a single intraperitoneal 100 mg/kg dose in DMSO (Day 4, 8 a.m.)): clear lowering of STG
- Effect on fasting STG (serum triglycerides [1]; SJL mice, intraperitoneal 100 mg/kg/injection, after fasting (Day 4, 2 p.m.)): this effect disappeared after fasting
- Serum triglycerides, Day 4 post-WR-1339 0 hr (2 pm), group mean (serum triglycerides [1]; group mean, SJL mice, 100 mg/kg oral then I.P., after 6 hours fasting, before WR-1339): 50
- Serum triglycerides, Day 4 0 hr (8 am), group mean (serum triglycerides [1]; group mean, SJL mice, 16 hours after a single 100 mg/kg I.P. dose): 79
- Serum triglycerides, Day 3 0 Hour, group mean (serum triglycerides [1]; group mean, SJL mice, Day 1-3 100 mg/kg oral, Day 3 prior to dosing): 118
- Serum triglycerides, Day 4 0 hr (2 pm), group mean (serum triglycerides [1]; [7]): 72.4
- Serum triglycerides, Day 3 8 a.m., group mean (serum triglycerides [1]; group mean, male SJL mice): 123.0
- Serum triglycerides, Day 4 0 hr (8 am) (serum triglycerides [1]; individual SJL mice, 16 hours after a single 100 mg/kg I.P. dose (after Day 1-3 100 mg/kg oral), 100 mg/kg): 58 and 79 and 51 and 114 and 50 and 125
- Serum triglycerides, Day 4 post-WR-1339 0 hr (2 pm) (serum triglycerides [1]; individual SJL mice, Day 1-3 100 mg/kg oral, Day 3-4 100 mg/kg I.P., after 6 hours fasting, before WR-1339, 100 mg/kg): 42 mg/dL (2×) and 36 mg/dL and 73 mg/dL and 59 mg/dL and 50 mg/dL
- Serum triglycerides, Day 3 0 Hour (serum triglycerides [1]; individual SJL mice, Day 1-3 100 mg/kg oral, Day 3 prior to dosing, 100 mg/kg): 81 and 104 and 103 and 139 and 107 and 171
- Serum triglycerides, Day 3 8 a.m. (serum triglycerides [1]): 128.7 and 124 and 150.3 and 110.5 and 118.6 and 124.7 and 112.5 and 106.4 and 131.4
- Serum triglycerides, Day 4 0 hr (2 pm) (serum triglycerides [1]; [8]): 63.1 and 91.7 and 43 and 72.1 and 90.8 and 76 and 68.2 and 73.4 (2×)
- Effect on non-fasting STG (serum triglycerides [1]; male SJL mice, 20 mg/kg orally): not observed
- Effect on HTG output ([2]; SJL mice, intraperitoneal injection 100 mg/kg/injection): reduced
- Serum triglycerides, Day 4 post-WR-1339 1 hr (3 p.m.), group mean ([2]; SJL mice, 100 mg/kg oral then I.P., 1 hr after WR-1339): 222
- Serum triglycerides, Day 4 post-WR-1339 2 hr (4 p.m.), group mean ([2]; SJL mice, 100 mg/kg oral then I.P., 2 hr after WR-1339): 345
- Serum triglycerides, Day 4 post-WR-1339 1 hr (3 p.m.), group mean [2, 9]: 334.2
- Serum triglycerides, Day 4 post-WR-1339 2 hr (4 p.m.), group mean [2, 10]: 646.8
- Serum triglycerides, Day 4 post-WR-1339 1 hr (3 p.m.) ([2]; individual SJL mice, Day 1-3 100 mg/kg oral, Day 3-4 100 mg/kg I.P., 1 hr after WR-1339, 100 mg/kg): 220 and 195 and 248 and 345 and 126 and 197
- Serum triglycerides, Day 4 post-WR-1339 2 hr (4 p.m.) ([2]; individual SJL mice, Day 1-3 100 mg/kg oral, Day 3-4 100 mg/kg I.P., 2 hr after WR-1339, 100 mg/kg): 285 and 272 and 396 and 531 and 200 and 387
- Serum triglycerides, Day 4 post-WR-1339 1 hr (3 p.m.) [2, 11]: 360.1 and 380.1 and 464.1 and 241.9 and 331.7 and 329.8 and 262.6 and 311 and 326.5
- Serum triglycerides, Day 4 post-WR-1339 2 hr (4 p.m.) [2, 12]: 726.9 and 723.7 and 770.2 and 590 and 575.2 and 700.4 and 462.8 and 659.1 and 612.6
- Effect on HTG output after WR-1339 injection ([2]; male SJL mice): not observed

SMILES: CCc1ccc(C2=CC(C)(C)Sc3ccc(C#Cc4ccc(C(=O)O)cc4)cc32)cc1 [AGN 194310, 4-[[4-(4-ethylphenyl)-2,2-dimethyl-(2H)-thiochromen-6-yl]-ethynyl]-benzoic acid]
- Triglyceride level after treatment ([3]; Example 1, person, tablet 20 mg daily, 3 months, initial 440 mg/dL): 280 mg/dL
- Triglyceride level after treatment ([3]; Example 2, person, tablet 50 mg twice daily, initial 950 mg/dL): 450 mg/dL
- Side effects ([3]; human, in vivo): no side effects
- Tolerability ([3]; human, in vivo): tolerates the medication well
- Serum triglycerides, Day 4 0 hr (2 pm), group mean (serum triglycerides [1]; [7]): 71.5
- Serum triglycerides, Day 3 8 a.m., group mean (serum triglycerides [1]; group mean, male SJL mice): 92.7
- Serum triglycerides, Day 3 8 a.m. (serum triglycerides [1]): 71.2 and 105.7 and 67.9 and 113.2 and 134.8 and 76.6 and 63.1 and 84.1 and 95.6 and 115.2
- Serum triglycerides, Day 4 0 hr (2 pm) (serum triglycerides [1]; [8]): 76.6 and 76 (2×) and 57.3 and 74.7 and 80.5 and 71.5 and 73.4 and 61.1 and 67.6
- Effect on non-fasting STG (serum triglycerides [1]; male SJL mice, 20 mg/kg orally): appeared to lower
- Effect on fasting STG (serum triglycerides [1]; male SJL mice, 20 mg/kg orally, Day 4, 2 p.m.): but not fasting STG
- Serum triglycerides, Day 4 post-WR-1339 1 hr (3 p.m.), group mean [2, 9]: 266.3
- Serum triglycerides, Day 4 post-WR-1339 2 hr (4 p.m.), group mean [2, 10]: 485.6
- Serum triglycerides, Day 4 post-WR-1339 1 hr (3 p.m.) [2, 11]: 216.8 and 307.2 and 294.9 and 311.7 and 238.7 and 303.9 and 260 and 252.3 and 210.9
- Serum triglycerides, Day 4 post-WR-1339 2 hr (4 p.m.) [2, 12]: 328.5 and 548 and 562.9 and 577.1 and 493.8 and 508 and 550 and 542.9 and 259.1
- Effect on HTG output after WR-1339 injection ([2]; male SJL mice): reduction of HTG output
- Stability to normal light (Stability to light): relatively stable to normal light
- Body weight and rate of food consumption ([4]; 1.25 mg/kg orally daily, throughout the 25 day study): no change in body weight or rate of food consumption
- Abnormal clinical signs ([4]; daily dose 1.25 mg/kg orally, 25 days): without any noticeable abnormal clinical signs
- Oral absorption [5]: well absorbed
- Serum triglycerides, Day 1 (serum triglycerides [6]; individual male cynomolgus monkeys, by gastric intubation daily, Day 1 (baseline)): 48.8 mg/dL and 52.5 mg/dL and 58.5 mg/dL
- Serum triglycerides, Day 8 (serum triglycerides [6]; individual male cynomolgus monkeys, by gastric intubation daily, Day 8): 24.3 mg/dL and 21.6 mg/dL and 19.2 mg/dL
- Serum triglycerides, Day 15 (serum triglycerides [6]; individual male cynomolgus monkeys, by gastric intubation daily, Day 15): 18.2 mg/dL and 30.7 mg/dL and 29.6 mg/dL
- Serum triglycerides, Day 22 (serum triglycerides [6]; individual male cynomolgus monkeys, by gastric intubation daily, Day 22): 30.4 mg/dL and 20.6 mg/dL and 36.5 mg/dL
- Serum triglycerides, Day 25 (serum triglycerides [6]; individual male cynomolgus monkeys, by gastric intubation daily, Day 25): 20.3 mg/dL and 23.4 mg/dL and 28.3 mg/dL
- Serum triglycerides, Day 1, group mean (serum triglycerides [6]; mean of 3 monkeys, by gastric intubation, Day 1 (baseline)): 53.3 mg/dL
- Serum triglycerides, Day 8, group mean (serum triglycerides [6]; mean of 3 monkeys, by gastric intubation, Day 8): 21.7 mg/dL
- Serum triglycerides, Day 15, group mean (serum triglycerides [6]; mean of 3 monkeys, by gastric intubation, Day 15): 26.2 mg/dL
- Serum triglycerides, Day 22, group mean (serum triglycerides [6]; mean of 3 monkeys, by gastric intubation, Day 22): 29.2 mg/dL
- Serum triglycerides, Day 25, group mean (serum triglycerides [6]; mean of 3 monkeys, by gastric intubation, Day 25): 24.0 mg/dL
- Effect on serum triglycerides (serum triglycerides [6]; monkeys, daily dose 1.25 mg/kg orally, 1.25 mg/kg): highly significant decrease of serum triglycerides; also recorded: lowers serum triglycerides
- Average decrease of serum triglycerides compared to day 1 (baseline) (serum triglycerides [6]; per treated monkey, 1.25 mg/kg orally daily for 25 days, control monkeys increased 48% and 89%, 1.25 mg/kg): 52% and 54% and 51%
